Laboratory results published in patent publication US20040219201A1, “Tempamine compositions and methods of use” (priority 2001, published 2004).

How the values were obtained:
[1] = format: in vivo; settings: free tempamine 1.8 mg/kg, four hours after injection, healthy and arthritic rats
Description: Studies using the AA model are described in Example 6. In this study, AA was induced in male rats by injection of microbacteria in Freund's ajuvavnt. Liposomes containing tempanine were prepared as described in Example 5A by remote loading tempamine against an ammonium sulfate gradient. The liposomes were administered by injection to healthy and arthritic rats 22 days after inducement of AA. At regular time intervals after administration of the liposomes, plasma and tissue samples were taken to determine the biodistribution and pharmacokinetics.
Adjuvent arthritis (AA) was induced by a single intradermal injection of mycobacteria in mineral oil (Freund's adjuvant). In strains of rats susceptible to adjuvant arthritis, the non-specific primary inflamnmation at the injection site was followed on about the 10th post-injection day by a disseminated polyarthritis or secondary specific inflammation. Lewis strain rats, which are highly susceptible to AA, were injected with 1 mg of Mycobacterium tuberculosis H37Ra (Difco, Detroit, Mich., USA) in Freund's complete adjuvant (FCA) (Difco), subcutaneously at the base of the tail. Maximum swelling of the paw occurred between 20 and 27 days
Adjuvent (maximum swelling). Tempamine was administered at a dose of 1.8 mg tempamine/kg (10.5 μmol/kg). The phospholipid concentration of the injected liposomes was 42 mg/kg (56 μmol/kg). […]

[2] = Lipid bilayer/aqueous phase distribution (dialysis membrane); format: physicochemical; settings: no ammonium sulfate gradient
Description: In another study, the partition of tempamine between the lipid bilayer and the aqueous phase was determined. The lipid bilayer/aqueous phase distribution was performed using a dialysis membrane separating the phases in 0.15 M NaCl (Samuni, A., et al., Free Radic Biol Med., 22:1165 (1997)). There was no predisposition of tempamine for the lipid bilayer over the 0.15 M NaCl aqueous phase and the distribution of tempamine was equal between the liposome preparation (10% egg phosphatidylcholine (EPC) (w/v)) and 0.15 M NaCl (data not shown).

[3] = Pharmacokinetics and biodistribution in C26 tumor-bearing BALB/c mice; format: in vivo
Description: The pharmacokinetics and biodistribution of liposome-entrapped tempamine and of free tempamine were determined in healthy and in tumor-bearing mice. […] The liposome formulation included a lipid label to allow analysis of the distribution of the liposome lipids. The tempamine levels in blood and tissues were measured using the EPR technique set forth in the Methods section.
8 to 12-week-old BALB/c female mice, obtained through the Animal Breeding House of the Hebrew University (Jerusalem, Israel), were used throughout the study. Animals were housed at Hadassah Medical Center with food and water ad libitum. All procedures were in accordance with the standards required by the Institutional Animal Care and Use Cornmittee of the Hebrew University and Hadassah Medical Organization. Each mouse was injected with one inoculum of tumor cells (1×10^6 C26 cells) subcutaneously into the left flank. […] Phospholipid dose was 11 mg (14.7 μmole)/mouse (377 mg (514 μmole)/kg body weight). At 1, 4, 8, 24, and 48 hours after the injection, the animals were anesthetized with ether inhalation, bled by eye enucleation, and immediately sacrificed for removal of liver, lung, spleen, kidney, and tumor. Each time point consisted of 3 mice. Plasma was separated by centrifugation.
To measure the total tempamine concentration (encapsulated and free) in the organs, the liposomes were solubilized by homogenization in a Polytron homogenizer (Kinematica, Lutzern, Switzerland) in 2% Triton X-100 (1:2, organ:Triton X-100 solution). The homogenized mixture was cooled and heated several times to destroy the lipid membrane (Barenholz, Y., et al., in LIPOSOME TECHNOLOGY, G. Gregoriadis (Ed.), 2nd Edn., Vol. I, CRC Press, Boca Raton, pp. 527-616, (1993)). The plasma samples were mixed 1:1 with 2% Triton X-100 to give the 1% Triton X-100 in the tested sample and also cooled and heated several times. These conditions were effective to achieve a release of all entrapped tempamine from intact liposomes.
For deterrmination of the total concentration of nitroxide+hydroxylamine, potassium ferricyanide at a final concentration of 2-3 mM (depending on the tested tissue) was added to all the samples (plasma and organ homogenates) to oxidize the hydroxylamine to intact nitroxide.
From the samples prepared as described above in section F, duplicates of 100 μl were burned in a Sample Oxidizer (Model 307, Packard Instrument Co., Meridien, Conn.) and left overnight in a dark, cool place. The samples were then measured by β-counting (KONTRON Liquid Scintillation Counter).

MCF-7 cancer cells = assay: Apoptosis detection by merocyanine-540 staining and flow cytometry; format: cell-based, human; settings: MCF-7, 1 mM tempamine, 24 hours; 14% without treatment
Excerpt: In another study, the MCF-7 cell line was used to investigate the mechanism of growth inhibition by tempamine. Untreated cells and tempamine-treated cells (24-hours exposure) were contacted with merocyanine-540. Merocyanine-540 binds selectively to phophatidylserine, which appears at the external surface of the cell at the beginning of apoptosis and is therefore one of the apoptotic markers (Reid, S., et al., J. lmmnol. Methods 192:43 (1996)). After interaction with merocyanine-540, cells were analyzed by flow cytometry as described in the methods section below. […] After the 24 hour treatment period, the cells were trypsinized, stained with merocyanine-540 and analyzed by flow cytometry. […]
Apoptosis was assessed by flow cytometry (FACScan). 1×10^6 cells were removed from culture, washed with PBS, and stained with merocyanine-540 (Reid, S., et al., J. Immunol. Methods 192:43 (1996). Briefly, the cell pellet was resuspended in 500 μl PBS. 2.5 μl of a 1 mg/ml solution of merocyanine-540 was added to the cells, incubated for 2 min at room temperature in the dark. The cells were washed, resuspended in 1 ml PBS, and run immediately on a fluorescence-activated cell-sorting flow cytometer (Vantage, Becton Dickinson, Rutherford, N.J., USA).

CC1(C)CC(N)CC(C)(C)N1[O] [tempamine, 2,2,6,6-tetramethylpiperidine-4-amino-1-oxyl]
amount of tempamine in plasma and in the tested tissues (detection limit) [1]: < 0.5 µM
distribution between liposome preparation (10% EPC w/v) and 0.15 M NaCl [2]: equal
concentration at 4 h ([3]; female, BALB/c, mouse, intravenous, 18 mg/kg, free tempamine, 4 hour time point, read-out: tempamine level in other organs (detection minimum)): < 100 nM
AUC ([3]; female, BALB/c, mouse, plasma, iv, tumor-bearing mice, 18 mg/kg i.v.): 170 ± 5 µg·h/mL
clearance ([3]; female, BALB/c, mouse, plasma, iv, tumor-bearing mice, 18 mg/kg i.v., read-out: CL (ml/h), clearance rate (converted)): 3.2 mL/h
half-life ([3]; female, BALB/c, mouse, plasma, iv, tumor-bearing mice, 18 mg/kg i.v., read-out: T1/2 (h), blood circulation half-life (converted)): 0.15 ± 0.009 h
Vd ([3]; female, BALB/c, mouse, plasma, iv, tumor-bearing mice, 18 mg/kg i.v., read-out: Vss (ml), volume of distribution): 55 ± 15.7 mL
tempamine in liver and spleen ([3]; free tempamine, 1 hour and 4 hours after injection): traces
half-life of tempamine in plasma ([3]; mouse plasma): several minutes
fluorescently labeled (apoptotic) cells (MCF-7 cancer cells): 77%
